Patent US20150148304A1, “Novel Peptides and Analogs for Use in the Treatment of Macrophage Activation Syndrome” (Soligenix, Inc., priority 2013, published 2015)
No end group written: not given here.

Experiments:
[1] = non-GLP pilot toxicology study, single IV administration, mouse; details: in vivo, IV injection over 30 to 60 seconds, actual dose, read-out: maximum tolerated dose (MTD) of a single administration
Experimental: (§1) Two pilot and 2 definitive repeat-dose toxicity studies were conducted with RIVPA (SEQ ID NO. 5) in mice and cynomolgus monkeys using the intravenous (IV; slow bolus) route of administration.
(§2) These resolved within a few minutes without detectable residual effects.

human normal blood cells = assay: proliferation of normal blood cells in vitro (human); type: cell-based
[2] = tested on: primary human leukemia cells; assay: proliferation of primary leukemia cells in vitro; type: cell-based
[3] = acute toxicity (respiratory depression) dose levels, mouse; type: in vivo
Experimental: (§3) The observed respiratory depression occurred at different dose levels in different species, and was not predicted by allometric scaling. In particular, the mouse appeared to be the most sensitive species with acute toxicity occurring rarely at 60 mg/kg (HED: ˜5 mg/kg) and commonly at 90 mg/kg (HED: ˜7 mg/kg). In contrast in NHP (cynomologus monkey), acute toxicity occurred occasionally at 160 mg/kg (HED: ˜50 mg/kg) and consistently at 240 mg/kg (HED: ˜78 mg/kg).

[4] = GLP 14-day repeat-dose IV toxicity study in cynomolgus monkeys; type: in vivo
Experimental: as §1
RIVPA (SEQ ID NO. 5) at 20, 80, 160 mg/kg/day was given IV to cynomolgus monkeys for 14 days. […] In all cases, these clinical signs resolved within a few minutes. […] A dose level of 80 mg/kg/day was considered to be the No-Observed-Adverse-Effect-Level (NOAEL) for this study.
Overall, the NOAEL is considered to be 80 mg/kg/day for cynomolgus monkeys since transient clinical signs were limited to a single study and occurred in only 2 instances of the 98 administrations of the drug at this dose level.
In the latter study, no effect on T-cell, B-cell or NK-cell counts was observed after 14 days of intravenous RIVPA (SEQ ID NO. 5) dosing in the NHP. […] Collectively, there is no indication of a potential for RIVPA (SEQ ID NO. 5) to cause immunotoxicity or non-specific immune activation. No hyperactivation or suppression of adaptive immune responses, or other impact on the phenotypes of cells associated with adaptive immunity, has been detected following RIVPA (SEQ ID NO. 5) administration.

[5] = acute toxicity (respiratory depression) dose levels, NHP; type: in vivo, cynomologus monkey
Experimental: as §3

[6] = distribution of radiolabelled RIVPA to the mouse CNS; type: in vivo; details: dose levels of 20 or 90 mg/kg
Experimental: No effects of RIVPA (SEQ ID NO. 5) have been observed on the central nervous system (CNS) in any study at any dose level and little or no radiolabelled RIVPA (SEQ ID NO. 5) was found in the mouse CNS at dose levels of either 20 or 90 mg/kg.

[7] = target: Sequestosome-1, also known as p62 (Homo sapiens, UniProt Q13501); details: cited from earlier work
[8] = cardiovascular (CV)/pulmonary safety pharmacology study; type: in vivo, cynomolgus monkey
Source text: In 1 animal, the high dose caused a marked reduction in respiratory rate followed by bradycardia, hypotension and death.
In summary, the major toxicological finding was an acute-onset respiratory depression, accompanied by labored breathing, recumbency and transient decreased activity.

[9] = toxicology and PK studies in mice with alternate routes of administration; details: mouse, in vivo, other: intraperitoneal or subcutaneous
[10] = non-GLP pilot toxicology study in nonhuman primates; type: in vivo, cynomolgus monkeys; details: 90, 180 and 220 mg/kg; NHP; resolved within a few minutes
Experimental: as §1, §2

[11] = tested on: macrophage activation syndrome model; assay: CpG (TLR-9 agonist) induced model of macrophage activation syndrome; type: in vivo, C57BL/6 mice
Experimental: Macrophage activation syndrome was simulated in 8-10 week old C57BL/6 mice by repeated administration of the TLR-9 agonist, CpG. CpG (35 μg in 200 μL) or Saline was administered intraperitoneally (IP) on days 0, 2, 4, 7 and 9. SGX94 (200 mg/kg IP) or Saline was administered on days 1, 4 and 7. […] In a repeat study, the same model was used to test administration of saline (Days 1, 4 and 7; control); RIVPA (SEQ ID NO. 5) at 200 mg/kg administered on Days 1, 4 and 7, 400 mg/kg administered on Day 1, 4 and 7 and 400 mg/kg administered on Days 1; 3, 5 and 7. In this experiment CpG (35 μg) was administered on days 0, 2, 4, 7 and 10 and no saline-stimulated controls were used.

mouse normal blood cells = assay: proliferation of normal blood cells in vitro (mouse); type: cell-based
[12] = Phase 1 study in healthy volunteers, pharmacokinetics; type: in vivo, human
Source text: Following IV administration in human subjects and consistent with findings in animal studies, RIVPA (SEQ ID NO. 5) is cleared from the circulation within minutes. […] Following the rapid decline, a slower elimination phase was observed. […] Maximum plasma concentrations and total exposure levels were dose-proportional and clearance of RIVPA (SEQ ID NO. 5) from the circulation was rapid, consistent with the mouse and NHP experience.
In light of the high clearance and short elimination half-life, accumulation following daily injection was not expected to occur.

[13] = single IV doses of 20 or 80 mg/kg
[14] = Day 8, 200 mg/kg IP days 1, 4 and 7, relative to CpG stimulated, saline treated group
[15] = Day 10, serum, 200 mg/kg IP, first study
[16] = repeat study, 200 mg/kg Days 1, 4, 7, 400 mg/kg Days 1, 4, 7, 400 mg/kg Days 1, 3, 5, 7

Sequestosome-1, also known as p62, sequence (Q13501 whole entry): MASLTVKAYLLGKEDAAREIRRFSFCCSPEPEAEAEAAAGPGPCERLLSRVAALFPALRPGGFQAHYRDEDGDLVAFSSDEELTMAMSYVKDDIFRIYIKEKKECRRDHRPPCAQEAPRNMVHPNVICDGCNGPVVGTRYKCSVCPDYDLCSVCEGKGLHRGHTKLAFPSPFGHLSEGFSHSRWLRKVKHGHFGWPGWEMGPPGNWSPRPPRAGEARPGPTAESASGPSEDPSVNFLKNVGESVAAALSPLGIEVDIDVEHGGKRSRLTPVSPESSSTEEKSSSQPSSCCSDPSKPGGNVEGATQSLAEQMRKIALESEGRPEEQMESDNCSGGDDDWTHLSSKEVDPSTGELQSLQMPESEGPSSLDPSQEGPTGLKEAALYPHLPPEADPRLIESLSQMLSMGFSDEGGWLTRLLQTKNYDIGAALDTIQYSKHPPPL

## RIVPA-NH2 [RIVPA, L-arginyl-L-isoleucyl-L-valyl-L-prolyl-L-alanine-amide]
[1]
  MTD: 88 mg/kg
Human normal blood cells
  proliferation of human normal blood cells: did not promote the proliferation
[2]
  proliferation of primary human leukemia cells: did not promote the proliferation
[3]; mouse 60 mg/kg
  HED of dose at which acute toxicity occurs rarely: ~5 mg/kg
[3]; mouse 90 mg/kg
  HED of dose at which acute toxicity occurs commonly: ~7 mg/kg
[4]; 160 mg/kg/day IV for 14 days, cynomolgus monkeys, during and shortly after dosing
  clinical signs at 160 mg/kg: Transient decreased activity and partially closed eyes
[4]; 20 and 80 mg/kg/day IV for 14 days, cynomolgus monkeys
  toxicity at 20 and 80 mg/kg/day: did not result in any evidence of toxicity
[4]; NHP 14-day toxicity study
  immune-related organ weights, histopathology, hematology and clinical chemistry: no changes were observed
[4]; after 14 days of intravenous dosing in the NHP
  T-cell, B-cell or NK-cell counts: no effect
[4]; cynomolgus monkey, in vivo, IV for 14 days, cynomolgus monkeys, read-out: No-Observed-Adverse-Effect-Level (NOAEL) for this study
  NOAEL at 14 days: 80 mg/kg/day
[4]; overall across studies, IV
  overall NOAEL for cynomolgus monkeys: 80 mg/kg/day
[5]; NHP 160 mg/kg
  HED of dose at which acute toxicity occurs occasionally: ~50 mg/kg
[5]; NHP 240 mg/kg
  HED of dose at which acute toxicity occurs consistently: ~78 mg/kg
[6]
  radiolabelled RIVPA found in the mouse CNS: little or no
[7]
  binding to p62: binds
[8]; 220 mg/kg, death in 1 animal
  clinical signs at 220 mg/kg: transient, severe clinical signs
[8]; nonhuman primates
  cardiac toxicity or QT prolongation: no cardiac toxicity or QT prolongation
[8]; single IV 80 mg/kg, during dosing
  clinical signs at 80 mg/kg: transient drooping eye lids and prostration
[8]; [13]
  cardiovascular effects and ECG parameters: no cardiovascular effects or changes in electrocardiogram (ECG) parameters
  respiratory effects: No respiratory effects were observed
[9]
  NOAEL: > 200 mg/kg
[10]
  clinical signs during and shortly after dosing: mild clinical signs
[11]; [14]
  platelet counts: increased
  white blood cell counts: significantly increased
[11]; Day 10, 200 mg/kg IP, relative to CpG stimulated, saline-treated group
  body weights: increased
[11]; [15]
  IFNγ levels: not significantly altered
  IL-10 levels: not significantly altered
[11]; Day 10, serum, 200 mg/kg IP, relative to CpG stimulated, saline-treated group
  IL-12 levels: decreased
[11]; relative to saline stimulated, saline treated control
  changes in saline stimulated, RIVPA treated group: no significant changes
[11]; repeat study
  IFNγ levels: no significant changes
[11]; [16]
  platelet count: statistically significant increase
  white blood cell count: statistically significant increase
Mouse normal blood cells
  proliferation of mouse normal blood cells: did not promote the proliferation
[12]; daily IV for 7 days, all subjects
  pre-dose concentrations on Days 5, 6, 7 and Day 8: below the lower limit of quantitation
[12]; human, plasma, intravenous, after start of infusion, dose range 0.15 mg/kg to 8 mg/kg, read-out: mean time of maximum concentration (Tmax)
  Tmax: 4 to 4.8 min
[12]; single-dose phase, 4-minute IV infusion
  time after start of infusion for plasma levels to decrease to less than 10 percent of Cmax: ≤ 9 min
[12]; single-dose phase, IV
  maximum plasma concentrations and total exposure levels versus dose: dose-proportional
